We go through 26 molecules from ChEMBL document CHEMBL4706639, “Discovery of Novel Azetidine Amides as Potent Small-Molecule STAT3 Inhibitors” (J Med Chem, 2021).

One assay has as its system MDA-MB-231. As to the kind of experiment: Antiproliferative activity against human MDA-MB-231 cells assessed as reduction in cell viability incubated for 72 hrs by CyQuant assay. It counts as functional, cell-based. The following applies: MDA-MB-231, 72 h.
For another assay, the system named is MDA-MB-468. As to the kind of experiment: Antiproliferative activity against human MDA-MB-468 cells harbouring STAT3 assessed as reduction in cell viability incubated for 72 hrs by CyQuant assay. It counts as functional, cell-based. The following applies: MDA-MB-468, 72 h.
Another assay concerns MCF7. As to the kind of experiment: Antiproliferative activity against human MCF7 cells assessed as reduction in cell viability incubated for 72 hrs by CyQuant assay. It counts as functional, cell-based. The conditions noted are these: MCF7, 72 h.
The next assay relates to MCF-10A. Briefly: Cytotoxicity against human MCF-10A cells assessed as reduction in cell viability incubated for 72 hrs by CyQuant assay. It counts as cell-based.

Regarding `O=C([C@H]1CCN1S(=O)(=O)c1c(F)c(F)c(F)c(F)c1F)N(Cc1ccc(C2CCCCC2)cc1)c1ccc2c(=O)[nH]ccc2c1`, the EC50 is 1.4 µM in the assay with MDA-MB-231, 3.8 µM in the assay with MDA-MB-468, 6.2 µM in the assay with MCF7 and 5.3 µM with MCF-10A.
As for `O=C([C@H]1CCN1S(=O)(=O)c1c(F)c(F)c(F)c(F)c1F)N(Cc1ccc(C2CCCCC2)cc1)c1cc2[nH]ncc2cc1F`, the EC50 in the assay on MDA-MB-231 is 2.4 µM; in the assay on MCF7, 9.4 µM; with MCF-10A, 8.1 µM.
In the case of `O=C(NO)c1cc(F)c(N(Cc2ccc(C3CCOCC3)cc2)C(=O)[C@H]2CCN2S(=O)(=O)c2c(F)c(F)c(F)c(F)c2F)cc1O`, the EC50 in the assay with MDA-MB-231 stood at 5.1 µM.
`CONC(=O)c1ccc(N(Cc2ccc(C3CCCCC3)cn2)C(=O)[C@H]2CCN2S(=O)(=O)c2c(F)c(F)c(F)c(F)c2F)cc1O`: the concentration giving a half-maximal response (EC50) in the assay with MDA-MB-231 was 6.7 µM; in the assay on MDA-MB-468 it was 3.9 µM.
For `O=C(NO)c1ccc(N(Cc2ccc(C3CCCC3)cc2)C(=O)[C@H]2CCN2S(=O)(=O)c2c(F)c(F)c(F)c(F)c2F)cc1`, the concentration for a half-maximal effect (EC50) in the assay with MDA-MB-231 was 3.1 µM; in the assay with MDA-MB-468, 1.8 µM; in the assay on MCF7, 7.2 µM; with MCF-10A, 7.3 µM.
As to `O=C1NCc2cc(N(Cc3ccc(C4CCCCC4)cn3)C(=O)[C@H]3CCN3S(=O)(=O)c3c(F)c(F)c(F)c(F)c3F)ccc21`, in the assay on MDA-MB-231, the EC50 amounted to 2 µM.
Same read-out and setting: to `O=C1NCc2cc(N(Cc3ccc(C4CCCCC4)cn3)C(=O)[C@H]3CCN3S(=O)(=O)c3c(F)c(F)c(F)c(F)c3F)c(F)cc21` belongs 2 µM.
As to `O=C(NO)c1ccc(N(Cc2cnc(C3CCCCC3)cn2)C(=O)[C@H]2CCN2S(=O)(=O)c2c(F)c(F)c(F)c(F)c2F)cc1O`, the concentration for a half-maximal effect (EC50) in the assay on MDA-MB-231 stood at 5.2 µM; in the assay with MDA-MB-468 it was 5.1 µM.
`O=C(NO)c1ccc(N(Cc2ccc(C3CCCCC3)cn2)C(=O)[C@H]2CCN2S(=O)(=O)c2c(F)c(F)c(F)c(F)c2F)cc1O`: the EC50 in the assay with MDA-MB-468 is 6.2 µM.
`O=C([C@H]1CCN1S(=O)(=O)c1c(F)c(F)c(F)c(F)c1F)N(Cc1ccc(C2CCCCC2)cn1)c1cc2[nH]ncc2cc1F`: the half-maximal effective concentration (EC50) stood at 2.3 µM in the assay on MDA-MB-231, 3.2 µM in the assay with MDA-MB-468, 4.8 µM in the assay on MCF7 and 4.9 µM in the assay on MCF-10A.
In the case of `O=C([C@H]1CCN1S(=O)(=O)c1c(F)c(F)c(F)c(F)c1F)N(Cc1ccc(C2CCCCC2)cn1)c1ccc2nn[nH]c2c1`, the EC50 in the assay on MDA-MB-231 amounted to 6.6 µM; with MDA-MB-468, 5.1 µM.
Turning to `O=C([C@H]1CCN1S(=O)(=O)c1c(F)c(F)c(F)c(F)c1F)N(Cc1cnc(C2CCCCC2)cn1)c1ccc2c(=O)[nH]ncc2c1`, in the assay with MDA-MB-231, the concentration for a half-maximal effect (EC50) is 4.8 µM.
Take `O=C([C@H]1CCN1S(=O)(=O)c1c(F)c(F)c(F)c(F)c1F)N(Cc1ccc(C2CCCCC2)cc1)c1ccc2c(=O)[nH]ncc2c1`: the EC50 is 1.6 µM in the assay with MDA-MB-231, 1.1 µM in the assay on MDA-MB-468, 4.5 µM with MCF7 and 4.6 µM in the assay on MCF-10A.
`O=C(NO)c1ccc(N(Cc2ccc(C3CCOCC3)cc2)C(=O)[C@H]2CCN2S(=O)(=O)c2c(F)c(F)c(F)c(F)c2F)cc1`: the EC50 in the assay on MDA-MB-231 was 4 µM; in the assay on MDA-MB-468 it was 2.1 µM; with MCF7 it was > 10 µM; in the assay on MCF-10A, 4.3 µM.
Turning to `O=C(NO)c1ccc(N(Cc2ccc(C3CCCCC3)cc2)C(=O)[C@H]2CCN2S(=O)(=O)c2c(F)c(F)c(F)c(F)c2F)cc1`, the 50% effective concentration (EC50) came to 5 µM in the assay on MDA-MB-231, 6.8 µM with MCF7 and 7.9 µM with MCF-10A.
Regarding `O=C(NO)c1ccc(N(Cc2ccc(C3CCCCC3)cn2)C(=O)[C@H]2CCN2S(=O)(=O)c2c(F)c(F)c(F)c(F)c2F)c(F)c1`, the EC50 in the assay with MDA-MB-231 came out at 5.8 µM; in the assay on MDA-MB-468 it was 4.2 µM.
Take `COC(=O)c1ccc(N(Cc2ccc(C3CCCCC3)nc2)C(=O)[C@H]2CCN2S(=O)(=O)c2c(F)c(F)c(F)c(F)c2F)cc1O`: the EC50 in the assay with MDA-MB-231 was 2 µM.
Same read-out and setting: to `O=C([C@H]1CCN1S(=O)(=O)c1c(F)c(F)c(F)c(F)c1F)N(Cc1cnc(C2CCCCC2)cn1)c1ccc2c(=O)[nH]cnc2c1` belongs 4.2 µM.
As to `O=C([C@H]1CCN1S(=O)(=O)c1c(F)c(F)c(F)c(F)c1F)N(Cc1cnc(C2CCCCC2)cn1)c1cc2[nH]ncc2cc1F`, the half-maximal effective concentration (EC50) came out at 2 µM in the assay on MDA-MB-231, 2 µM with MDA-MB-468, 4.6 µM in the assay with MCF7 and 3.2 µM in the assay with MCF-10A.
With `NC(=O)c1ccc(N(Cc2ccc(C3CCCCC3)cn2)C(=O)[C@H]2CCN2S(=O)(=O)c2c(F)c(F)c(F)c(F)c2F)cc1O`, the EC50 came to 2.9 µM in the assay with MDA-MB-231, 2.6 µM with MDA-MB-468, 4.6 µM in the assay on MCF7 and 7.2 µM in the assay with MCF-10A.
Taken in the same sequence, the figures for `O=C([C@H]1CCN1S(=O)(=O)c1c(F)c(F)c(F)c(F)c1F)N(Cc1ccc(C2CCCCC2)cn1)c1ccc2c(=O)[nH]ccc2c1` were 1.2 µM, 2 µM, 2.2 µM and 2.7 µM.
On to `O=C([C@H]1CCN1S(=O)(=O)c1c(F)c(F)c(F)c(F)c1F)N(Cc1cnc(C2CCCCC2)cn1)c1ccc2nn[nH]c2c1`, for which the values for the EC50 in the assay with MDA-MB-231 and in the assay with MDA-MB-468 were 2.1 µM and 2.3 µM, respectively.
With `COC(=O)c1ccc(N(Cc2ccc(C3CCCCC3)cn2)C(=O)[C@H]2CCN2S(=O)(=O)c2c(F)c(F)c(F)c(F)c2F)cc1O`, in the assay on MDA-MB-231, the EC50 was determined as 1.8 µM.
On to `Cn1ccc2cc(N(Cc3ccc(C4CCCCC4)cn3)C(=O)[C@H]3CCN3S(=O)(=O)c3c(F)c(F)c(F)c(F)c3F)ccc2c1=O`, for which the 50% effective concentration (EC50) worked out at 2.3 µM in the assay on MDA-MB-231, 2.8 µM in the assay on MCF7 and 4.4 µM in the assay on MCF-10A.
In the case of `O=C([C@H]1CCN1S(=O)(=O)c1c(F)c(F)c(F)c(F)c1F)N(Cc1ccc(C2CCCCC2)cn1)c1ccc2c(=O)[nH]cnc2c1`, the 50% effective concentration (EC50) turned out to be 3.3 µM with MDA-MB-231, 1.5 µM with MDA-MB-468, 3.6 µM in the assay on MCF7 and 4 µM in the assay with MCF-10A.
Taken in the same sequence, the figures for `Cn1cnc2cc(N(Cc3ccc(C4CCCCC4)cn3)C(=O)[C@H]3CCN3S(=O)(=O)c3c(F)c(F)c(F)c(F)c3F)ccc2c1=O` were 2.1 µM, 2.2 µM, 3.2 µM and 4.7 µM.

Usually EC50 stands for the concentration at which the effect is half-maximal.
